# Assays:
# [1] = system: Aspergillus niger ATCC 9642; assay: Minimal inhibitory concentration (MIC) of preservative solutions, serial dilution in culture medium, read with the naked eye; type: cell-based; conditions: ATCC9642, 120 h, A. niger ATCC 9642, 10^5 cfu/ml, 25°C, 5 days
# Procedure: (§1) Thus, two culture media are prepared by adding 0% and 5% of a-cyclodextrin, respectively, to a 1/15 M phosphate buffer (pH 6.5) containing 2% of Polypeptone (Daigo Nutritive Chemicals Ltd., Japan). The preservative is added to each medium and the resulting solution is diluted serially with each of the respective media to give solutions differing in preservative concentration. The test organisms are added to these solutions to a final concentration of 10^5 cfu/ml (cfu: colony forming unit).
# [2] = system: Escherichia coli IFO 3044; assay: as above; type: cell-based; conditions: IFO3044, 72 h, E. coli IFO 3044, 10^5 cfu/ml, 35°C, 3 days
# Procedure: as §1
# [3] = pH 6.5, Culture medium + 5% α-cyclodextrin
# [4] = pH 6.5, Culture medium without addition of cyclodextrin
SMILES,"MIC [1, 3] [µg/mL]","MIC [1, 4] [µg/mL]","MIC [2, 3] [µg/mL]","MIC [2, 4] [µg/mL]"
"Cc1cc(O)cc(C)c1Cl [p-Chloro-m-xylenol, p-chloro-m-xylenol]",75,50,150,100
"Cc1cc(O)ccc1Cl [p-Chloro-m-cresol, p-chloro-m-cresol]",200,100,200,200
CCCCOC(=O)c1ccc(O)cc1 [Butylparaben],4000,125,4000,125
"Oc1ccc(Cl)cc1 [p-Chlorophenol, p-chlorophenol]",400,200,400,200

# Results, then the compound that gave them:
"MIC [1, 3] [µg/mL]","MIC [1, 4] [µg/mL]","MIC [2, 3] [µg/mL]","MIC [2, 4] [µg/mL]",SMILES
4000,250,4000,500,CCOC(=O)c1ccc(O)cc1 [Ethylparaben]
4000,500,4000,500,COC(=O)c1ccc(O)cc1 [Methylparaben]
4000,125,4000,250,CCCOC(=O)c1ccc(O)cc1 [Propylparaben]

# — EP0119737A2, “Pharmaceutical composition and its production” (Takeda Chemical Industries, Ltd., priority 1983, dated 1984)
